We go through 20 compounds from patent US20080269241A1, “BICYCLIC AMINOPROPYL TETRAHYDRO-PYRAZOLO-PYRIDINE MODULATORS OF CATHEPSIN S” (priority 2007, published 2008).

In general, IC50 refers to the concentration needed to halve the response being measured.

In the assay the target is T1, human cathepsin S (CatS) (Homo sapiens, UniProt P25774).
T1 construct: made in house; host or cells: baculovirus system (insect cells)
T1 sequence (P25774 115-331): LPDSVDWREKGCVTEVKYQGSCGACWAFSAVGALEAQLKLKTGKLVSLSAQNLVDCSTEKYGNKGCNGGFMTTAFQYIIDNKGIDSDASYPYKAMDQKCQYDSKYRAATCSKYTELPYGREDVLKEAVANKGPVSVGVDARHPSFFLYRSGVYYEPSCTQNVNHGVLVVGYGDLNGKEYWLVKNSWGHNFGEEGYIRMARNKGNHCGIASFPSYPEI
Put plainly: Recombinant human cathepsin S (CatS) fluorogenic substrate inhibition assay. It counts as biochemical. The following applies: recombinant human CatS, 10 μM Z-Valine-Valine-Arginine-AMC, pH 5.0; average of results obtained; read-out: CatS IC50. On the procedure:
Recombinant human cathepsin S (CatS) was expressed in the baculovirus system and purified in one step with a thiopropyl-sepharose column. […] The assay is run in 150 mM sodium acetate pH 5.0 containing 1.5 mM DTT and 150 mM NaCl. […] Measurements are taken every min for 20 min. The rate is calculated from the slope of the increase in fluorescence and the percent inhibition is calculated from this.
Turning to `CS(=O)(=O)N1CCc2c(c(-c3ccc(C(F)(F)F)c(CNC(=O)c4ccc(C(F)(F)F)nc4)c3)nn2CC(O)CN2CCC(N3CCCC3=O)CC2)C1` (centres unmarked) [Example 54, N-[5-(1-{2-Hydroxy-3-[4-(2-oxo-pyrrolidin-1-yl)-piperidin-1-yl]-propyl}-5-methanesulfonyl-4,5,6,7-tetrahydro-1H-pyrazolo[4,3-c]pyridin-3-yl)-2-trifluoromethyl-benzyl]-6-trifluoromethyl-nicotinamide], the IC50 stood at 70 nM.
Under `CS(=O)(=O)N1CCc2c(c(-c3ccc(C(F)(F)F)c(CNC(=O)/C=C/c4ccccc4)c3)nn2CC(O)CN2CCC(N3CCCC3=O)CC2)C1` (centres unmarked) [Example 55, N-[5-(1-{2-Hydroxy-3-[4-(2-oxo-pyrrolidin-1-yl)-piperidin-1-yl]-propyl}-5-methanesulfonyl-4,5,6,7-tetrahydro-1H-pyrazolo[4,3-c]pyridin-3-yl)-2-trifluoromethyl-benzyl]-3-phenyl-acrylamide] stands 320 nM; under `CS(=O)(=O)N1CCc2c(c(-c3ccc(Cl)c(CNC(=O)c4ccc(F)cc4)c3)nn2CC(O)CN2CCC(N3CCCCC3=O)CC2)C1` (centres unmarked) [Example 72, N-(2-Chloro-5-{1-[2-hydroxy-3-(2-oxo-[1,4′]bipiperidinyl-1′-yl)-propyl]-5-methanesulfonyl-4,5,6,7-tetrahydro-1H-pyrazolo[4,3-c]pyridin-3-yl}-benzyl)-4-fluoro-benzamide], 10 nM.
The result for `CN(C)c1ccc2c(n1)n(C1CCN(CC(O)Cn3nc(-c4ccc(Cl)c(CNC(=O)c5ccc(F)cc5)c4)c4c3CCN(S(C)(=O)=O)C4)CC1)c(=O)n2C` (centres unmarked) [Example 76, N-[2-Chloro-5-(1-{3-[4-(5-dimethylamino-1-methyl-2-oxo-1,2-dihydroimidazo[4,5-b]pyridin-3-yl)-piperidin-1-yl]-2-hydroxy-propyl}-5-methanesulfonyl-4,5,6,7-tetrahydro-1H-pyrazolo[4,3-c]pyridin-3-yl)-benzyl]-4-fluoro-benzamide] reads 10 nM; that for `CS(=O)(=O)N1CCc2c(c(-c3ccc(Cl)c(CNC(=O)c4ccc(F)cc4)c3)nn2CC(O)CN2CCC(N3CCOCC3)CC2)C1` (centres unmarked) [Example 79, N-(2-Chloro-5-{1-[2-hydroxy-3-(4-morpholin-4-yl-piperidin-1-yl)-propyl]-5-methanesulfonyl-4,5,6,7-tetrahydro-1H-pyrazolo[4,3-c]pyridin-3-yl}-benzyl)-4-fluoro-benzamide], 60 nM.
On to `CS(=O)(=O)N1CCc2c(c(-c3ccc(C(F)(F)F)c(CNC(=O)c4ccc(F)cc4O)c3)nn2CC(O)CN2CCC(N3CCCC3=O)CC2)C1` (centres unmarked) [Example 104, 4-Fluoro-2-hydroxy-N-[5-(1-{2-hydroxy-3-[4-(2-oxo-pyrrolidin-1-yl)-piperidin-1-yl]-propyl}-5-methanesulfonyl-4,5,6,7-tetrahydro-1H-pyrazolo[4,3-c]pyridin-3-yl)-2-trifluoromethyl-benzyl]-benzamide], for which the IC50 was found to be 60 nM.
The result for `CS(=O)(=O)N1CCc2c(c(-c3ccc(C(F)(F)F)c(CNC(=O)c4cccs4)c3)nn2CC(O)CN2CCC(N3CCCC3=O)CC2)C1` (centres unmarked) [Example 105, Thiophene-2-carboxylic acid 5-(1-{2-hydroxy-3-[4-(2-oxo-pyrrolidin-1-yl)-piperidin-1-yl]-propyl}-5-methanesulfonyl-4,5,6,7-tetrahydro-1H-pyrazolo[4,3-c]pyridin-3-yl)-2-trifluoromethyl-benzylamide] reads 40 nM; that for `CS(=O)(=O)N1CCc2c(c(-c3ccc(C(F)(F)F)c(CNC(=O)c4cc5ccccc5s4)c3)nn2CC(O)CN2CCC(N3CCCC3=O)CC2)C1` (centres unmarked) [Example 106, Benzo[b]thiophene-2-carboxylic acid 5-(1-{2-hydroxy-3-[4-(2-oxo-pyrrolidin-1-yl)-piperidin-1-yl]-propyl}-5-methanesulfonyl-4,5,6,7-tetrahydro-1H-pyrazolo[4,3-c]pyridin-3-yl)-2-trifluoromethyl-benzylamide], 60 nM; that for `CS(=O)(=O)N1CCc2c(c(-c3ccc(C(F)(F)F)c(CNC(=O)c4ccc(CO)cc4)c3)nn2CC(O)CN2CCC(N3CCCC3=O)CC2)C1` (centres unmarked) [Example 107, 4-Hydroxymethyl-N-[5-(1-{2-hydroxy-3-[4-(2-oxo-pyrrolidin-1-yl)-piperidin-1-yl]-propyl}-5-methanesulfonyl-4,5,6,7-tetrahydro-1H-pyrazolo[4,3-c]pyridin-3-yl)-2-trifluoromethyl-benzyl]-benzamide], 70 nM.
Consider `CS(=O)(=O)N1CCc2c(c(-c3ccc(C(F)(F)F)c(CNC(=O)CC4CCCC4)c3)nn2CCCN2CCC(N3CCCC3=O)CC2)C1` [Example 108, 2-Cyclopentyl-N-[5-(5-methanesulfonyl-1-{3-[4-(2-oxo-pyrrolidin-1-yl)-piperidin-1-yl]-propyl}-4,5,6,7-tetrahydro-1H-pyrazolo[4,3-c]pyridin-3-yl)-2-trifluoromethyl-benzyl]-acetamide], for which the IC50 was 80 nM.
Turning to `CC(=O)c1ccc(C(=O)NCc2cc(-c3nn(CC(O)CN4CCC(N5CCCC5=O)CC4)c4c3CN(S(C)(=O)=O)CC4)ccc2C(F)(F)F)s1` (centres unmarked) [Example 109, 5-Acetyl-thiophene-2-carboxylic acid 5-(1-{2-hydroxy-3-[4-(2-oxo-pyrrolidin-1-yl)-piperidin-1-yl]-propyl}-5-methanesulfonyl-4,5,6,7-tetrahydro-1H-pyrazolo[4,3-c]pyridin-3-yl)-2-trifluoromethyl-benzylamide], the IC50 is 80 nM.
Under `CCCC(=O)NCc1cc(-c2nn(CCCN3CCC(N4CCCC4=O)CC3)c3c2CN(S(C)(=O)=O)CC3)ccc1C(F)(F)F` [Example 110, N-[5-(5-Methanesulfonyl-1-{3-[4-(2-oxo-pyrrolidin-1-yl)-piperidin-1-yl]-propyl}-4,5,6,7-tetrahydro-1H-pyrazolo[4,3-c]pyridin-3-yl)-2-trifluoromethyl-benzyl]-butyramide] stands 90 nM; under `CS(=O)(=O)N1CCc2c(c(-c3ccc(C(F)(F)F)c(CNC(=O)CC4CCCCC4)c3)nn2CCCN2CCC(N3CCCC3=O)CC2)C1` [Example 111, 2-Cyclohexyl-N-[5-(5-methanesulfonyl-1-{3-[4-(2-oxo-pyrrolidin-1-yl)-piperidin-1-yl]-propyl}-4,5,6,7-tetrahydro-1H-pyrazolo[4,3-c]pyridin-3-yl)-2-trifluoromethyl-benzyl]-acetamide], 100 nM; under `CS(=O)(=O)N1CCc2c(c(-c3ccc(C(F)(F)F)c(CNC(=O)N4CCCCC4)c3)nn2CC(O)CN2CCC(N3CCCC3=O)CC2)C1` (centres unmarked) [Example 112, Piperidine-1-carboxylic acid 5-(1-{2-hydroxy-3-[4-(2-oxo-pyrrolidin-1-yl)-piperidin-1-yl]-propyl}-5-methanesulfonyl-4,5,6,7-tetrahydro-1H-pyrazolo[4,3-c]pyridin-3-yl)-2-trifluoromethyl-benzylamide], 100 nM.
Under `CS(=O)(=O)N1CCc2c(c(-c3ccc(C(F)(F)F)c(CNC(=O)c4cscn4)c3)nn2CC(O)CN2CCC(N3CCCC3=O)CC2)C1` (centres unmarked) [Example 114, Thiazole-4-carboxylic acid 5-(1-{2-hydroxy-3-[4-(2-oxo-pyrrolidin-1-yl)-piperidin-1-yl]-propyl}-5-methanesulfonyl-4,5,6,7-tetrahydro-1H-pyrazolo[4,3-c]pyridin-3-yl)-2-trifluoromethyl-benzylamide] stands 100 nM; under `CS(=O)(=O)c1ccc(C(=O)NCc2cc(-c3nn(CC(O)CN4CCC(N5CCCC5=O)CC4)c4c3CN(S(C)(=O)=O)CC4)ccc2C(F)(F)F)s1` (centres unmarked) [Example 119, 5-Methanesulfonyl-thiophene-2-carboxylic acid 5-(1-{2-hydroxy-3-[4-(2-oxo-pyrrolidin-1-yl)-piperidin-1-yl]-propyl}-5-methanesulfonyl-4,5,6,7-tetrahydro-1H-pyrazolo[4,3-c]pyridin-3-yl)-2-trifluoromethyl-benzylamide], 140 nM; under `CS(=O)(=O)N1CCc2c(c(-c3ccc(C(F)(F)F)c(CNC(=O)c4ccc5[nH]c(=O)[nH]c5c4)c3)nn2CC(O)CN2CCC(N3CCCC3=O)CC2)C1` (centres unmarked) [Example 120, 2-Oxo-2,3-dihydro-1H-benzoimidazole-5-carboxylic acid 5-(1-{2-hydroxy-3-[4-(2-oxo-pyrrolidin-1-yl)-piperidin-1-yl]-propyl}-5-methanesulfonyl-4,5,6,7-tetrahydro-1H-pyrazolo[4,3-c]pyridin-3-yl)-2-trifluoromethyl-benzylamide], 140 nM.
For `CS(=O)(=O)N1CCc2c(c(-c3ccc(C(F)(F)F)c(CNC(=O)c4ccc(-c5ccccn5)s4)c3)nn2CC(O)CN2CCC(N3CCCC3=O)CC2)C1` (centres unmarked) [Example 121, 5-Pyridin-2-yl-thiophene-2-carboxylic acid 5-(1-{2-hydroxy-3-[4-(2-oxo-pyrrolidin-1-yl)-piperidin-1-yl]-propyl}-5-methanesulfonyl-4,5,6,7-tetrahydro-1H-pyrazolo[4,3-c]pyridin-3-yl)-2-trifluoromethyl-benzylamide], the IC50 is 150 nM.
The result for `CN1CCOc2cc(C(=O)NCc3cc(-c4nn(CC(O)CN5CCC(N6CCCC6=O)CC5)c5c4CN(S(C)(=O)=O)CC5)ccc3C(F)(F)F)ccc21` (centres unmarked) [Example 122, 4-Methyl-3,4-dihydro-2H-benzo[1,4]oxazine-7-carboxylic acid 5-(1-{2-hydroxy-3-[4-(2-oxo-pyrrolidin-1-yl)-piperidin-1-yl]-propyl}-5-methanesulfonyl-4,5,6,7-tetrahydro-1H-pyrazolo[4,3-c]pyridin-3-yl)-2-trifluoromethyl-benzylamide] reads 170 nM; that for `Cc1nn(C)c2sc(C(=O)NCc3cc(-c4nn(CC(O)CN5CCC(N6CCCC6=O)CC5)c5c4CN(S(C)(=O)=O)CC5)ccc3C(F)(F)F)cc12` (centres unmarked) [Example 123, 1,3-Dimethyl-1H-thieno[2,3-c]pyrazole-5-carboxylic acid 5-(1-{2-hydroxy-3-[4-(2-oxo-pyrrolidin-1-yl)-piperidin-1-yl]-propyl}-5-methanesulfonyl-4,5,6,7-tetrahydro-1H-pyrazolo[4,3-c]pyridin-3-yl)-2-trifluoromethyl-benzylamide], 180 nM.
